Counter-ions that a name gives are not always drawn.
Experiments:
[1] = target: Human recombinant PDE10A2 (Homo sapiens (Human), UniProt Q9Y233); assay: In vitro hPDE10a (human recombinant PDE10A2, scintillation proximity assay); type: biochemical; details: human recombinant PDE10A2, 60 nM cAMP, 60 min at room temperature; read-out: hPDE10a2 IC50
Method: Human recombinant PDE10A2 was expressed in Sf9 cells, using a recombinant baculovirus construct containing the full length sequence containing a 6×His sequence following the start Met to allow metal affinity purification of the recombinant protein. Cells were harvested and the phosphodiesterase protein was purified by metal chelate chromatography on Ni-sepharose 6FF.
The affinity of the compounds of Formula (I) for phophodiesterases (PDE) was measured by a scintillation proximity assay (SPA). PDE Yttrium Silicate SPA beads allow PDE activity to be measured by direct binding of the primary phosphate groups of non-cyclic AMP or GMP to the beads via a complex iron chelation mechanism. The amount of bound tritiated product ([^3H]-AMP) is measured by liquid scintillation counting.
The compounds were dissolved and diluted in 100% DMSO in polystyrene plates to a concentration of 100-fold the final concentration in the assay. Human PDE10A enzyme solution (10 μL) was added to 20 μL, of incubation buffer (50 mM Tris pH 7.8, 8.3 mM MgCl2, 1.7 mM EGTA), 10 μL, substrate solution consisting of a mixture of non-tritiated and tritiated substrate (60 nM cAMP, 0.008 μCi ^3H-cAMP), and 0.4 μL, compound in 100% DMSO in a 384-well plate, and incubated for 60 min at room temperature. After incubation, the reaction was stopped with 20 μL, of stop solution, consisting of PDE SPA beads (17.8 mg beads/mL in 18 mM zinc sulphate). After sedimentation of the beads for 30 min, the radioactivity was measured in a Perkin Elmer Topcount scintillation counter and results were expressed as cpm. To measure the low control, no enzyme was added to the reaction mixture.
Data were calculated as the percentage of inhibition of total activity measured in the absence of test compound (% control).

[2] = target: Rat recombinant PDE10a (rPDE10a) (Rattus norvegicus (Rat), UniProt Q9QYJ6); assay: In vitro assay PDE10a (rat recombinant PDE10a, SPA); type: biochemical; details: 60 nM cAMP, 60 min at rt, read-out: rPDE10a2 IC50
Chain of Rat recombinant PDE10a (rPDE10a) (Q9QYJ6 whole entry): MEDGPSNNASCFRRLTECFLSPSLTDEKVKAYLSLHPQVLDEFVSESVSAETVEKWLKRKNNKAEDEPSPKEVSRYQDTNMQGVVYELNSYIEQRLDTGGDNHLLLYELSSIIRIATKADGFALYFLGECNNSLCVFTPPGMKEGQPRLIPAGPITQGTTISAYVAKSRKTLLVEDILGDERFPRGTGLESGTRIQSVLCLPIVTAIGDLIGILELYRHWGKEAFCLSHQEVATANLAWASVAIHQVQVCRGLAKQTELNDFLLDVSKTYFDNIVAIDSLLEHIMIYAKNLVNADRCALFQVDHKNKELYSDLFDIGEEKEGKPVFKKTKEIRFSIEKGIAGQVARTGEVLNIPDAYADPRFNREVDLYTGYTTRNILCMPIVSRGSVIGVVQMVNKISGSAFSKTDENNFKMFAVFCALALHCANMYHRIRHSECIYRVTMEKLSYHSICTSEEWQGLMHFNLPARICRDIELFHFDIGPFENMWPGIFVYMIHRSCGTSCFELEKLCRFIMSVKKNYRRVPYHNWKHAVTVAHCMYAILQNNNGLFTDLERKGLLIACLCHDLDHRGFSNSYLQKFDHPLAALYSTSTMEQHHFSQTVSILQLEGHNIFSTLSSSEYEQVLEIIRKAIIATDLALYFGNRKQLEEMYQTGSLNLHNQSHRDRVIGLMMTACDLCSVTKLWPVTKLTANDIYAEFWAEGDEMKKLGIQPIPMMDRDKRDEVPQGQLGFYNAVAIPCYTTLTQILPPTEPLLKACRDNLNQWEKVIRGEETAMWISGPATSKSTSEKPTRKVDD
Method: Rat recombinant PDE10a (rPDE10a) was expressed in Sf9 cells using a recombinant rPDE10a baculovirus construct. Cells were harvested after 48 h of infection and the rPDE10a protein was purified by metal chelate chromatography on Ni-sepharose 6FF. Tested compounds were dissolved and diluted in 100% DMSO to a concentration 100 fold of the final concentration in the assay. Compound dilutions (0.4 μL) were added in 384 well plates to 20 μL of incubation buffer (50 mM Tris pH 7.8, 8.3 mM MgCl2, 1.7 mM EGTA). 10 μL of rPDE10a enzyme in incubation buffer was added and the reaction was started by addition of 10 μL substrate to a final concentration of 60 nM cAMP and 0.008 μCi ^3H-cAMP. The reaction was incubated for 60 min at rt. After incubation, the reaction was stopped with 20 μL of 17.8 mg/mL PDE SPA beads. After sedimentation of the beads during 30 min the radioactivity was measured in a Perkin Elmer Topcount scintillation counter and results were expressed as cpm. For blank values the enzyme was omitted from the reaction and replaced by incubation buffer. Control values were obtained by addition of a final concentration of 1% DMSO instead of compound.

Chain of Human recombinant PDE10A2 (Q9Y233 267-1055): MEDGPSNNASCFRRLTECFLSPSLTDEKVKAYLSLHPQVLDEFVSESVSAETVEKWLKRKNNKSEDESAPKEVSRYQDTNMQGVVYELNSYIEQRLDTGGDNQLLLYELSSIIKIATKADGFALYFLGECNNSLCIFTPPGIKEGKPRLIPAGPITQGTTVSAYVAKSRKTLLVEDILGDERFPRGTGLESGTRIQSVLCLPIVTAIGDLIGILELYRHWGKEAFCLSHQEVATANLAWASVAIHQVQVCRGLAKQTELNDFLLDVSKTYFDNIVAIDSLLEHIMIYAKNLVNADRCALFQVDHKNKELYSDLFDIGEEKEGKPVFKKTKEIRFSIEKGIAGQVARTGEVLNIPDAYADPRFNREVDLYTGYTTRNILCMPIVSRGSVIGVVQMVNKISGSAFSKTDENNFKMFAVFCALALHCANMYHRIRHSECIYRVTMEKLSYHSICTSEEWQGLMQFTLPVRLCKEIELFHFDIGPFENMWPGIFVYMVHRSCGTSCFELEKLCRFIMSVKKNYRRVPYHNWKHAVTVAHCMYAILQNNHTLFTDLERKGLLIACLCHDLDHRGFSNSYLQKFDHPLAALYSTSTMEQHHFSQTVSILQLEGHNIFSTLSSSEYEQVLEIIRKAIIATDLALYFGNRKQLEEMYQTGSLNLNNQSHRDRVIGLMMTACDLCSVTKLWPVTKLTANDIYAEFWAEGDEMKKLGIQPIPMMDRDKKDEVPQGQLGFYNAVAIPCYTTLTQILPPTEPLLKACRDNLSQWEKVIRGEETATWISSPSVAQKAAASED

IC50 [1] [nM] | IC50 [2] [nM] | SMILES
5 | 4 | c1ccc2nc(CCc3cn4c(-c5ccc(-c6nnc[nH]6)nc5)cnc(N5CCOCC5)c4n3)ccc2c1 [Cpd 67, 4-(5-(6-(4H-1,2,4-Triazol-3-yl)pyridin-3-yl)-2-(2-(quinolin-2-yl)ethyl)imidazo[1,2-a]pyrazin-8-yl)morpholine]
44 | 63 | O=C(Nc1ccc(-c2cnc(N3CCOCC3)c3nc(/C=C/c4ccc5ccccc5n4)cn23)cc1)N(CCO)CCO [Cpd 71, (E)-1,1-bis(2-hydroxyethyl)-3-(4-(8-morpholino-2-(2-(quinolin-2-yl)vinyl)imidazo[1,2-a]pyrazin-5-yl)phenyl)urea]
1 | < 30 | c1ccc2nc(CCc3cn4c(-c5ccc(-c6nnn[nH]6)nc5)cnc(N5CCOCC5)c4n3)ccc2c1 [Cpd 77, 4-(5-(6-(1H-Tetrazol-5-yl)pyridin-3-yl)-2-(2-(quinolin-2-yl)ethyl)imidazo[1,2-a]pyrazin-8-yl)morpholine]
16 | 8 | NC(=O)c1ccc(-c2cnc(N3CCOCC3)c3nc(COc4ccc5ccccc5n4)cn23)cn1 [Cpd 84, 5-(8-Morpholino-2-((quinolin-2-yloxy)methyl)imidazo[1,2-a]pyrazin-5-yl)picolinamide]
1 | 2 | CS(=O)(=O)Nc1ccc(-c2cnc(N3CCOCC3)c3nc(COc4ccc5ccccc5n4)cn23)cn1 [Cpd 85, N-(5-(8-Morpholino-2-((quinolin-2-yloxy)methyl)imidazo[1,2-a]pyrazin-5-yl)pyridin-2-yl)methanesulfonamide]
14 | 16 | NS(=O)(=O)c1ccc(-c2cnc(N3CCOCC3)c3nc(COc4ccc5ccccc5n4)cn23)cn1 [Cpd 86, 5-(8-Morpholino-2-((quinolin-2-yloxy)methyl)imidazo[1,2-a]pyrazin-5-yl)pyridine-2-sulfonamide trifluoroacetic acid salt]
1 | 2 | NS(=O)(=O)c1ccc(-c2cnc(N3CCOCC3)c3nc(COc4ccc5ccccc5n4)cn23)cc1 [Cpd 87, 4-(8-Morpholino-2-((quinolin-2-yloxy)methyl)imidazo[1,2-a]pyrazin-5-yl)benzenesulfonamide]
8 | 3 | Oc1nc2ncc(-c3cnc(N4CCOCC4)c4nc(/C=C/c5ccc6ccccc6n5)cn34)cc2[nH]1 [Cpd 94, (E)-6-(8-Morpholino-2-(2-(quinolin-2-yl)vinyl)imidazo[1,2-a]pyrazin-5-yl)-3H-imidazo[4,5-b]pyridin-2-ol]
58 | 52 | c1ccc2nc(SCc3cn4c(-c5ccc(N6CCNCC6)nc5)cnc(N5CCOCC5)c4n3)ccc2c1 [Cpd 98, 4-(5-(6-(piperazin-1-yl)pyridin-3-yl)-2-((quinolin-2-ylthio)methyl)imidazo[1,2-a]pyrazin-8-yl)morpholine trifluoroacetic acid salt]

Continued, compound first:

SMILES | IC50 [1] [nM] | IC50 [2] [nM]
O=c1[nH]c2ccc(-c3cnc(N4CCOCC4)c4nc(CCc5ccc6ccccc6n5)cn34)cc2o1 [Cpd 64, 6-(8-morpholino-2-(2-(quinolin-2-yl)ethyl)imidazo[1,2-a]pyrazin-5-yl)benzo[d]oxazol-2(3H)-one trifluoroacetic acid salt] | 13 | 22
O=c1[nH]ncn1-c1ccc(-c2cnc(N3CCOCC3)c3nc(CCc4ccc5ccccc5n4)cn23)cc1 [Cpd 65, 4-(4-(8-Morpholino-2-(2-(quinolin-2-yl)ethyl)imidazo[1,2-a]pyrazin-5-yl)phenyl)-1H-1,2,4-triazol-5(4H)-one] | 38 | 60
O=C(O)CNc1ccc(-c2cnc(N3CCOCC3)c3nc(/C=C/c4ccc5ccccc5n4)cn23)cn1 [Cpd 66, (E)-2-(5-(8-Morpholino-2-(2-(quinolin-2-yl)vinyl)imidazo[1,2-a]pyrazin-5-yl)pyridin-2-ylamino)acetic acid trifluoroacetic acid salt] | 2 | 3
c1ccc2nc(SCc3cn4c(-c5ccc(-c6nnn[nH]6)nc5)cnc(N5CCOCC5)c4n3)ccc2c1 [Cpd 70, 4-(5-(6-(1H-Tetrazol-5-yl)pyridin-3-yl)-2-((quinolin-2-ylthio)methyl)imidazo[1,2-a]pyrazin-8-yl)morpholine] | 2 | 1
O=C(NCCO)Nc1ccc(-c2cnc(N3CCOCC3)c3nc(/C=C/c4ccc5ccccc5n4)cn23)cc1 [Cpd 72, (E)-1-(2-Hydroxyethyl)-3-(4-(8-morpholino-2-(2-(quinolin-2-yl)vinyl)imidazo[1,2-a]pyrazin-5-yl)phenyl)urea] | 31 | 46
O=S(=O)(NCCO)c1ccc(-c2cnc(N3CCOCC3)c3nc(/C=C/c4ccc5ccccc5n4)cn23)cc1 [Cpd 73, (E)-N-(2-Hydroxyethyl)-4-(8-morpholino-2-(2-(quinolin-2-yl)vinyl)imidazo[1,2-a]pyrazin-5-yl)benzenesulfonamide] | 26 | 40
Oc1nc(-c2cnc(N3CCOCC3)c3nc(COc4ccc5ccccc5n4)cn23)no1 [Cpd 75, 3-(8-Morpholino-2-((quinolin-2-yloxy)methyl)imidazo[1,2-a]pyrazin-5-yl)-1,2,4-oxadiazol-5-ol] | < 1 | < 1
CS(=O)(=O)Nc1ccc(-c2cnc(N3CCOCC3)c3nc(CCc4ccc5ccccc5n4)cn23)cn1 [Cpd 78, N-(5-(8-Morpholino-2-(2-(quinolin-2-yl)ethyl)imidazo[1,2-a]pyrazin-5-yl)pyridin-2-yl)methanesulfonamide] | 1 | < 1
Oc1nc2ncc(-c3cnc(N4CCOCC4)c4nc(CCc5ccc6ccccc6n5)cn34)cc2[nH]1 [Cpd 79, 6-(8-Morpholino-2-(2-(quinolin-2-yl)ethyl)imidazo[1,2-a]pyrazin-5-yl)-1H-imidazo[4,5-b]pyridin-2-ol] | 7 | 33
C(=C\c1cn2c(-c3ccc(N4CCNCC4)nc3)cnc(C3CCOCC3)c2n1)/c1ccc2ccccc2n1 [Cpd 80, (E)-2-(2-(5-(6-(piperazin-1-yl)pyridin-3-yl)-8-(tetrahydro-2H-pyran-4-yl)imidazo[1,2-a]pyrazin-2-yl)vinyl)quinoline trifluoroacetic acid salt] | 617 | 562
COc1cc(-c2ncc(-c3ccc(N4CCNCC4)nc3)n3cc(/C=C/c4ccc5ccccc5n4)nc23)ccn1 [Cpd 81] | 245 | 91
COc1cc(-c2ncc(-c3ccc(N4CCNCC4)nc3)n3cc(COc4ccc5ccccc5n4)nc23)ccn1 [Cpd 82] | 282 | 245
CC(=O)NS(=O)(=O)c1ccc(-c2cnc(N3CCOCC3)c3nc(COc4ccc5ccccc5n4)cn23)cc1 [Cpd 88, N-((4-(8-Morpholino-2-((quinolin-2-yloxy)methyl)imidazo[1,2-a]pyrazin-5-yl)phenyl)sulfonyl)acetamide] | 9 | 12
c1ccc2nc(OCc3cn4c(-c5ccc(-c6nnn[nH]6)cc5)cnc(N5CCOCC5)c4n3)ccc2c1 [Cpd 90, 4-(5-(4-(1H-Tetrazol-5-yl)phenyl)-2-((quinolin-2-yloxy)methyl)imidazo[1,2-a]pyrazin-8-yl)morpholine] | 2 | 1
C(=C\c1cn2c(-c3ccc(-c4nnn[nH]4)nc3)cnc(N3CCOCC3)c2n1)/c1ccc2ccccc2n1 [Cpd 96, (E)-4-(5-(6-(1H-Tetrazol-5-yl)pyridin-3-yl)-2-(2-(quinolin-2-yl)vinyl)imidazo[1,2-a]pyrazin-8-yl)morpholine] | 3 | < 1
c1ccc2nc(N3CC(c4cn5c(-c6ccc(N7CCNCC7)nc6)cnc(N6CCOCC6)c5n4)C3)ccc2c1 [Cpd 99, 4-(5-(6-(piperazin-1-yl)pyridin-3-yl)-2-(1-(quinolin-2-yl)azetidin-3-yl)imidazo[1,2-a]pyrazin-8-yl)morpholine] | 224 | 204

Reference: patent US9249163B2, “PDE10a inhibitors for the treatment of type II diabetes” (Janssen Pharmaceutica, NV, priority 2013, dated 2016)
